Experimental data as given in patent US7309579B2, “Method for screening for activators of soluble guanylate cyclase having oxidized heme iron” (Sanofi-Aventis Deutschland GmbH, priority 1999, dated 2007).

Experiments:
[1] = biological target: T1, soluble guanylate cyclase with a trivalent heme iron (Bos taurus, UniProt P16068); test: Activation of soluble guanylate cyclase after oxidation of the heme iron (enzyme stored at 4° C. for about 7 days); assay type: biochemical, bovine; details: sGC with trivalent heme iron, prepared by storing freshly prepared enzyme at 4° C. for about 7 days
T1 construct: suitably diluted sGC enzyme solution (isolated from bovine lung); from tissue; host or cells: bovine lung
T1 sequence (P16068 1-619): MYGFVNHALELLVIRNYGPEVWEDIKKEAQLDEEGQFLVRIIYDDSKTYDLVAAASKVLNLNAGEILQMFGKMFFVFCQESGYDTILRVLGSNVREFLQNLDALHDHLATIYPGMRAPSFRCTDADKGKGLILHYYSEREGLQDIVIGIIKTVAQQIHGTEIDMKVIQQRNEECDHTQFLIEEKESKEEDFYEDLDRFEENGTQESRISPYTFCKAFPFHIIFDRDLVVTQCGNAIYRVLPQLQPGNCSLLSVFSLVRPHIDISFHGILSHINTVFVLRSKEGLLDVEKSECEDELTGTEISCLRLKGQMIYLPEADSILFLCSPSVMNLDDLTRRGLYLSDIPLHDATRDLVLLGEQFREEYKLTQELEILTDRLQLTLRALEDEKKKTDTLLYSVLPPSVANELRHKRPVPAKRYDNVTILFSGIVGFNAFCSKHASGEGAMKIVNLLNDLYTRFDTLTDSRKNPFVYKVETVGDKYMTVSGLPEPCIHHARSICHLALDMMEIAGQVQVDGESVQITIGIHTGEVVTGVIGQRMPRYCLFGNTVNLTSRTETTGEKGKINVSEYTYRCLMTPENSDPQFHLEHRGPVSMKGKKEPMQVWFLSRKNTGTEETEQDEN
T1 sequence (P19687 1-691 partner): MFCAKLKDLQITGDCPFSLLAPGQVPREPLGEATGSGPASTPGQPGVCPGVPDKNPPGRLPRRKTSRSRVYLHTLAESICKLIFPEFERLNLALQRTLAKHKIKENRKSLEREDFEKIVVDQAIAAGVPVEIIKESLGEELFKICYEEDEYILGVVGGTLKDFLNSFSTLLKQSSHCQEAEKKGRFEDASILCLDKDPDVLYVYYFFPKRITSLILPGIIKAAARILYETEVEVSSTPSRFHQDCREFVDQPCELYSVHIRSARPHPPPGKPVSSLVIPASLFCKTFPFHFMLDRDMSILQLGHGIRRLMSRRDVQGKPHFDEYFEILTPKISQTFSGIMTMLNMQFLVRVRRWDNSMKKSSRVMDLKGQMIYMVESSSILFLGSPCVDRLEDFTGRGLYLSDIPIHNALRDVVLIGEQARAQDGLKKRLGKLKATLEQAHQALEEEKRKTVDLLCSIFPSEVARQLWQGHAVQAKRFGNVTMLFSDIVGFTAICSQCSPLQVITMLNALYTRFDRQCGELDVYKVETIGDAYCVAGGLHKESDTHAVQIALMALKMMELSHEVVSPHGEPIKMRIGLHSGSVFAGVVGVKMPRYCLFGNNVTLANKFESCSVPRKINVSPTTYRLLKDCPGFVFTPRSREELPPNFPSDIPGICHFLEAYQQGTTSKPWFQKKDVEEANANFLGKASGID
Experimental: (§1) Soluble guanylate cyclase (sGC) catalyzes the conversion of GTP into cGMP and pyrophosphate. In the presence of nicotinamide adenine dinucleotide (NAD^+) and nicotinamide mononucleotide adenylyltransferase (NAT, EC 2.7.7.1), pyrophosphate is converted into ATP and nicotinamide mononucleotide. The ATP formed can be quantified luminometrically with the aid of a luciferase in microtiter plates.
(§2) The substance to be investigated is dissolved in DMSO and diluted with DMSO/water to a final concentration of 50 μM in the assay mixture. The DMSO concentration in the assay mixture should not exceed 5% (v/v).
(§3) 100 μl of reaction mixture should contain 50 mM TEA buffer (pH 7.4), 3 mM MgCl2, 3 mM GSH, 0.1 mM GTP, 1 mM IBMX (isobutylmethylxanthine), 0.2 mM NAD^+, 0.4 mU of NAT, suitably diluted sGC enzyme solution (isolated from bovine lung as described by P. Humbert et al., Methods of Enzymology 195, 384-391 (1991)) and the test substance or solvent (for determining the basal enzyme activity). The reaction is started by adding the sGC. The reaction mixture is incubated at room temperature for 60 min and then stopped by cooling in ice and adding 50 mM EDTA, pH 8.0. […] The relative luminescence units (RLU) can be measured in a microtiter plate luminometer.
(§4) The sGC activity is obtained after subtracting the blank RLU (incubation without enzyme) from the measured RLU. […]

[2] = biological target: T2, heme-free soluble guanylate cyclase (Bos taurus, UniProt P16068); test: Activation of heme-free soluble guanylate cyclase; assay type: biochemical, bovine
T2 sequence (P16068 1-619): T1 sequence (P16068 1-619)
T2 sequence (P19687 1-691 partner): T1 sequence (P19687 1-691 partner)
Experimental: as §1, §2, §3, §4

EC50 [1]: 500 nM
stimulation of the activity [1]: 17.6 fold
stimulation of the activity [2]: 58.2 fold
EC50 ([2]; read-out: affinity): 2400 nM
Structure (SMILES): COc1cc(NS(=O)(=O)c2ccc(Cl)cc2)c(C(=O)Nc2ccc(S(=O)(=O)N3CCSCC3)cc2)cc1OC [2-(4-chlorophenylsulfonylamino)-4,5-dimethoxy-N-(4-(thiomorpholine-4-sulfonyl)phenyl)benzamide]
